PMC6941124 (International Journal of Molecular Sciences, 2019)
Numbering of substitutions follows the chain as printed.

Target: T1, CK1δ A36V (Homo sapiens, UniProt P48730, A36V)
T1 sequence (P48730 1-415 A36V): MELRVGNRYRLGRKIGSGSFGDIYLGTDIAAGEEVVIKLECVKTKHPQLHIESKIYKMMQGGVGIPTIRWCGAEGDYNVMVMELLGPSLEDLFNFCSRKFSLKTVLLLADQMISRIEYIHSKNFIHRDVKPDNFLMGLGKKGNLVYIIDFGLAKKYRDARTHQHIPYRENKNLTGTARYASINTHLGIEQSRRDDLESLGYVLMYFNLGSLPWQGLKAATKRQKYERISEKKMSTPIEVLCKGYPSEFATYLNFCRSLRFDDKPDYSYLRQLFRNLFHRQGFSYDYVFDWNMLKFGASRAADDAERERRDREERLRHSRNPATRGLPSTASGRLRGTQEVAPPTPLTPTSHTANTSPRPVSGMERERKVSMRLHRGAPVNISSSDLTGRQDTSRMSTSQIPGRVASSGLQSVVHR
Assay: in vitro kinase assay, CK1δ mutant A36V
Type: biochemical
Details: inhibitor at IC50 concentration previously determined for CK1δ WT; DMSO control = 100%; adjusted to WT = 50%; mean ± SD
Method: (§1) Overexpression and purification of GST-CK1δ fusion proteins, either wild type or mutant, were performed as described previously.
(§2) Each kinase assay reaction was performed in kinase buffer (25 mM Tris-HCl (pH 7.5), 10 μM ATP, 10 mM MgCl2, 100 μM EDTA) in presence of purified GST-CK1δ kinase as source of enzyme (either wild type or mutant), an assay-specific substrate (α-casein, GST-p53^1−64, or GST-β-catenin^1−181), and radiolabeled ATP (2 μCi [γ-^32P]-ATP). For performing Michaelis–Menten analysis increasing substrate concentrations were used (α-casein: 0.39−25 μM; GST-p53^1−64: 0.09−1.87 μM; GST-β-catenin^1−181: 0.07−1.32 μM). For biological evaluation of small molecule inhibitors (SMIs), each inhibitor compound was either tested at 10 μM concentration for initial screening or by using a dilution series (0.005−10 µM) for determination of IC50 values. DMSO was used as control. Reactions were incubated for 30 min at 30 °C and reactions were stopped using 5x SDS-loading buffer (250 mM Tris-HCl [pH 6.8], 25% (v/v) β-mercaptoethanol (MSH), 50% (v/v) glycerol, 10% (w/v) SDS, 0.5% (w/v) bromphenol blue). Subsequently, samples were separated by SDS-PAGE using 12.5% acrylamide gels, stained with Coomassie, and phosphorylated substrates were visualized on X-ray film. Incorporation of radiolabeled phosphate was quantified by scintillation counting of Coomassie-stained substrate bands. Defined dilutions of the reaction master mix were counted as well in order to convert results obtained as counts per minute (CPM) to units of transferred phosphate in pmol/min. Michaelis–Menten analysis was performed using GraphPad Prism 6 (GraphPad Software, San Diego, CA, USA).

| SMILES | Residual activity of CK1δ A36V [%] |
| --- | --- |
| O=C(Nc1nc2ccc(C(F)(F)F)cc2[nH]1)c1csc(NC(=O)c2ccccc2OC(F)(F)F)n1 [Bischof-5] | 43 ± 15 |
| Cc1ccc2nc(NC(=O)CSc3nc4c(c(=O)n3-c3ccccc3)SCC4)sc2c1 [IWP-2] | 55 ± 6 |
| COc1ccccc1-n1c(SCC(=O)Nc2nc3ccc(C)cc3s2)nc2c(c1=O)SCC2 [IWP-4] | 49 ± 7 |

Target: T2, CK1δ R127Q (Homo sapiens, UniProt P48730, R127Q)
T2 sequence (P48730 1-415 R127Q): T1 sequence (P48730 1-415 A36V) with V36A, R127Q
Assay: in vitro kinase assay, CK1δ mutant R127Q
Type: biochemical
Details: inhibitor at IC50 concentration previously determined for CK1δ WT; DMSO control = 100%; adjusted to WT = 50%; mean ± SD
Method: as §1, §2

| SMILES | Residual activity of CK1δ R127Q [%] |
| --- | --- |
| O=C(Nc1nc2ccc(C(F)(F)F)cc2[nH]1)c1csc(NC(=O)c2ccccc2OC(F)(F)F)n1 [Bischof-5] | 24 ± 8 |
| Cc1ccc2nc(NC(=O)CSc3nc4c(c(=O)n3-c3ccccc3)SCC4)sc2c1 [IWP-2] | 37 ± 5 |
| COc1ccccc1-n1c(SCC(=O)Nc2nc3ccc(C)cc3s2)nc2c(c1=O)SCC2 [IWP-4] | 36 ± 11 |
